# Measured values reported in US20030078274A1, “Method of reducing neuronal injury or apoptosis” (priority 1999, published 2003).
# Experiments:
# [1] = tested on: neurons in rat cerebrocortical cultures (SDF-1-induced apoptosis); assay: SDF-1-induced neuronal apoptosis in rat cerebrocortical cultures; type: cell-based, Sprague-Dawley rats; conditions: p38 MAPK inhibition by SB 203580, FIG. 4(B)
# Method: The model used in the assays described below, i.e., rat cerebrocortical cultures, was prepared from embryos of Sprague-Dawley rats at day 15 to 17 of gestation. See Lei et al., Neuron 8:1087-1099 (1992) and Lipton et al., Nature 364:626-632 (1993). Cultures were used for experiments after 17 to 24 days in culture. These cultures contain neurons, astrocytes, and macrophages/microglia, as determined with specific immunolabeling. Prior to some experiments, macrophages/microglia or neurons were depleted from the cultures by exposure to 7.5 mM L-leucine methyl ester or 2 mM N-methyl-D-aspartate (NMDA), respectively. See Lipton, NeuroReport 3:913-915 (1992). Absence of macrophages/microglia or neurons in these cultures was confirmed immunocytochemically, using antibodies to ED-1 and microtubule-associated protein-2 (MAP-2), respectively. In some experiments, the Griess reaction was used to measure nitrite levels in the culture medium as an index of nitric oxide (NO) release. See Chao et al., Glia 16:276-284 (1996). […]
# Neuronal apoptosis in the above-described assays was assessed using a variety of techniques, e.g., staining of permeabilized cells with propidium iodide to determine apoptotic morphology, and a neuron-specific antibody (against NeuN or MAP-2) to identify cell type. […]
# cultured RGCs = assay: NMDA-induced apoptosis in cultured RGCs; type: cell-based, Long-Evans rats; conditions: 1 μM; 300 μM NMDA/5 μM glycine for 18 hr
# Method: Retinal cell cultures. Retinal cells were prepared from 6-10 day old Long-Evans rats as described in Leifer et al., Science 224:303-306 (1984). Briefly, following dissociation in papain, retinal cells were plated on poly-L-lysine-coated glass coverslips in Eagle's minimum essential medium. RGCs were identified by immunocytochemical staining using an anti-Thy-1 antibody (2G12), which is specific among rat retinal cells for the ganglion cells.
# Assessment of NMDA-induced apoptosis in cultured RGCs. To induce predominantly apoptosis (See Bonfoco et al., Proc. Natl. Acad. Sci. USA 92:7162-7166 (1995); Dreyer et al., Neuroreport 6:942-944 (1995)), retinal cell cultures were exposed to 300 μM NMDA/5 μM glycine for 18 hr in high calcium (3 mM) medium. For specific labeling of RGCs, the cultures were incubated with anti-Thy-1 antibody for 1 hr. Following 3 washes with PBS, cells were incubated in goat-anti-mouse-IgG-FITC for 1 hr. For assessment of apoptosis, retinal cells were fixed, permeabilized and stained with 20 μg/ml propidium iodide for 5 min, as described in Ankarcrona et al., Neuron 15:961-973 (1995). Briefly, coverslips containing the cells were washed once with PBS and permeabilized with 85% methanol for 10 min. […] Apoptotic nuclei were scored in cells that were also stained by anti-Thy-1, and expressed as a fraction of total RGCs.
compound,measurement,setting,value
"C[S+]([O-])c1ccc(-c2nc(-c3ccc(F)cc3)c(-c3ccncc3)[nH]2)cc1 (centres unmarked) [SB 203580, 4-(4-fluorophenyl)-2-(4-methylsulfinylphenyl)-5-(4-pyridyl)-1H-imidazole]",effect on SDF-1 neurotoxicity (SDF-1β-induced neuronal apoptosis),[1],ameliorated
same,survival of RGCs in the face of NMDA exposure,cultured RGCs,significantly increased
